Assay results taken from ChEMBL document CHEMBL4507303, “Data for DCP probe TP-004” (2021).

Key:
[1] = target: AP2-associated protein kinase 1 (Homo sapiens) (UniProt Q2M2I8); conditions: Compound concentration 1000.0 nM
[2] = system: Tyrosine-protein kinase ABL1 (Homo sapiens), P00519 [F317I]; conditions: Compound concentration 1000.0 nM
[3] = system: Tyrosine-protein kinase ABL1 (Homo sapiens), P00519 [Y253F]; conditions: Compound concentration 1000.0 nM
[4] = target: Tyrosine-protein kinase ABL2 (Homo sapiens) (UniProt P42684); conditions: Compound concentration 1000.0 nM
[5] = target: Activin receptor type-1 (Homo sapiens) (UniProt Q04771); conditions: Compound concentration 1000.0 nM
[6] = system: ALK tyrosine kinase receptor (Homo sapiens), Q9UM73 [C1156Y]; conditions: Compound concentration 1000.0 nM
[7] = target: Cyclin-dependent kinase 7 (Homo sapiens) (UniProt P50613); conditions: Compound concentration 1000.0 nM
[8] = target: Cyclin-dependent kinase-like 1 (Homo sapiens) (UniProt Q00532); conditions: Compound concentration 1000.0 nM
[9] = target: Serine/threonine-protein kinase DCLK1 (Homo sapiens) (UniProt O15075); conditions: Compound concentration 1000.0 nM
[10] = system: Epidermal growth factor receptor (Homo sapiens), P00533 [UNDEFINED MUTATION]; conditions: Compound concentration 1000.0 nM
[11] = target: Ephrin type-A receptor 8 (Homo sapiens) (UniProt P29322); conditions: Compound concentration 1000.0 nM
[12] = target: Ephrin type-B receptor 3 (Homo sapiens) (UniProt P54753); conditions: Compound concentration 1000.0 nM
Sequence of Ephrin type-B receptor 3 (Homo sapiens) (P54753 whole entry): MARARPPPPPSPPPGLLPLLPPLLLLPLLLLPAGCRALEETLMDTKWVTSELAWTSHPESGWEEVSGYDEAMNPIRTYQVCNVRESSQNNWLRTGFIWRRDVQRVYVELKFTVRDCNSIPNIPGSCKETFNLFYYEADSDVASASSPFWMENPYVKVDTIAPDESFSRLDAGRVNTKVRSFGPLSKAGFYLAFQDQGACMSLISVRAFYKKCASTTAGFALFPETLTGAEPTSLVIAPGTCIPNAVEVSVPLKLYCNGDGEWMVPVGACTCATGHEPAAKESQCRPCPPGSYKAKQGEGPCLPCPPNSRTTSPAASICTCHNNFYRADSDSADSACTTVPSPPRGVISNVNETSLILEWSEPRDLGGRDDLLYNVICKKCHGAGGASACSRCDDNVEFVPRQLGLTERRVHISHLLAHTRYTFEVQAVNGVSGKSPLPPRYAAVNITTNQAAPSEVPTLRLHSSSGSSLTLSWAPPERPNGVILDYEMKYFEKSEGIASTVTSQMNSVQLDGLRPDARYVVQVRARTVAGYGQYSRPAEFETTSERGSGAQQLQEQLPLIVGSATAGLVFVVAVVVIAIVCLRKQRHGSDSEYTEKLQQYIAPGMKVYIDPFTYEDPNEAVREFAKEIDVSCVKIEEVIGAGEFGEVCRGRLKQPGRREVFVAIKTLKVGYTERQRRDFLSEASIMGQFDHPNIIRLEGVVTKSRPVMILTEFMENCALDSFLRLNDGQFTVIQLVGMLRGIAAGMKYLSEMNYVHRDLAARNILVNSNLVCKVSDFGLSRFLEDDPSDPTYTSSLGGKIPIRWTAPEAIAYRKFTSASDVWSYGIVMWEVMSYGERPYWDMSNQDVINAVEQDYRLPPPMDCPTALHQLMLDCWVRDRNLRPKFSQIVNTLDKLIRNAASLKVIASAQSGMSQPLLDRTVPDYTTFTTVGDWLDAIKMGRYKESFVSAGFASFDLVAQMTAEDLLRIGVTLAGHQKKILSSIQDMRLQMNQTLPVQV

[13] = system: Receptor-type tyrosine-protein kinase FLT3 (Homo sapiens), P36888 [UNDEFINED MUTATION]; conditions: Compound concentration 1000.0 nM
[14] = system: Receptor-type tyrosine-protein kinase FLT3 (Homo sapiens), P36888 [N841I]; conditions: Compound concentration 1000.0 nM
[15] = target: Hormonally up-regulated neu tumor-associated kinase (Homo sapiens) (UniProt P57058); conditions: Compound concentration 1000.0 nM
Sequence of Hormonally up-regulated neu tumor-associated kinase (Homo sapiens) (P57058 whole entry): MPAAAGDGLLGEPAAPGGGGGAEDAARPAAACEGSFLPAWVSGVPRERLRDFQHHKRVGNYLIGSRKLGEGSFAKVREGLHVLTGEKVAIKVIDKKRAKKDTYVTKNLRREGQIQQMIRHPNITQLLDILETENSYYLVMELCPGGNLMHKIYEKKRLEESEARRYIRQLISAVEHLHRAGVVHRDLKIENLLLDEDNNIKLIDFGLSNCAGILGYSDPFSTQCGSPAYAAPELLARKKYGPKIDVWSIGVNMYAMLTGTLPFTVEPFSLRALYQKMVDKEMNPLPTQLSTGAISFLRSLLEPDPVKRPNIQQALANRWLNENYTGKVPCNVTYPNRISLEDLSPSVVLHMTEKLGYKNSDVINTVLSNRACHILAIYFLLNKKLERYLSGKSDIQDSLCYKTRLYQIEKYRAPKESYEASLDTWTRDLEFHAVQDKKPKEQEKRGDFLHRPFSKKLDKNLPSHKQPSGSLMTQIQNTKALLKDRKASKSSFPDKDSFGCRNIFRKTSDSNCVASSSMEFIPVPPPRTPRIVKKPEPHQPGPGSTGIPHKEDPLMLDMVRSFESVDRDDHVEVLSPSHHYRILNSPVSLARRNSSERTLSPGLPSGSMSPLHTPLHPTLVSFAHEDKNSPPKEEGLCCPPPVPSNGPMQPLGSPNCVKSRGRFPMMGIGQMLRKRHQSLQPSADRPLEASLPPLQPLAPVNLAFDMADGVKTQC

[16] = target: Interleukin-1 receptor-associated kinase 1 (Homo sapiens) (UniProt P51617); conditions: Compound concentration 1000.0 nM
[17] = target: Mitogen-activated protein kinase 10 (Homo sapiens) (UniProt P53779); conditions: Compound concentration 1000.0 nM
[18] = target: Mast/stem cell growth factor receptor Kit (Homo sapiens) (UniProt P10721); conditions: Compound concentration 1000.0 nM
[19] = system: Mast/stem cell growth factor receptor Kit (Homo sapiens), P10721 [L576P]; conditions: Compound concentration 1000.0 nM
[20] = target: MAP kinase-activated protein kinase 5 (Homo sapiens) (UniProt Q8IW41); conditions: Compound concentration 1000.0 nM
[21] = target: Macrophage-stimulating protein receptor (Homo sapiens) (UniProt Q04912); conditions: Compound concentration 1000.0 nM
[22] = target: Myosin-IIIa (Homo sapiens) (UniProt Q8NEV4); conditions: Compound concentration 1000.0 nM
[23] = target: Serine/threonine-protein kinase 38 (Homo sapiens) (UniProt Q15208); conditions: Compound concentration 1000.0 nM
Sequence of Serine/threonine-protein kinase 38 (Homo sapiens) (Q15208 2-465 limits assumed): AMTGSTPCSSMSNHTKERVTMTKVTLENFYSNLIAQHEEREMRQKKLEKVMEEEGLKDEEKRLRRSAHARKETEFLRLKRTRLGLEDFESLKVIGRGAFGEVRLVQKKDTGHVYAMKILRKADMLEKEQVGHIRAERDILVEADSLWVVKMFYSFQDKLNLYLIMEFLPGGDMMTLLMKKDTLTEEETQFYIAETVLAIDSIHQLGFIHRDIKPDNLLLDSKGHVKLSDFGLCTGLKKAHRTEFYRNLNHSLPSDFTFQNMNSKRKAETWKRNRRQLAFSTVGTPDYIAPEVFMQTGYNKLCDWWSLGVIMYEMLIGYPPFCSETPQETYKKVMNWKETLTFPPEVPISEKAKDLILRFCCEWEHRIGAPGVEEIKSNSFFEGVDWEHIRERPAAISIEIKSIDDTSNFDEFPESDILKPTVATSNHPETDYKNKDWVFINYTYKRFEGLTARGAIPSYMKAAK

[24] = target: Serine/threonine-protein kinase Nek2 (Homo sapiens) (UniProt P51955); conditions: Compound concentration 1000.0 nM
Sequence of Serine/threonine-protein kinase Nek2 (Homo sapiens) (P51955 whole entry): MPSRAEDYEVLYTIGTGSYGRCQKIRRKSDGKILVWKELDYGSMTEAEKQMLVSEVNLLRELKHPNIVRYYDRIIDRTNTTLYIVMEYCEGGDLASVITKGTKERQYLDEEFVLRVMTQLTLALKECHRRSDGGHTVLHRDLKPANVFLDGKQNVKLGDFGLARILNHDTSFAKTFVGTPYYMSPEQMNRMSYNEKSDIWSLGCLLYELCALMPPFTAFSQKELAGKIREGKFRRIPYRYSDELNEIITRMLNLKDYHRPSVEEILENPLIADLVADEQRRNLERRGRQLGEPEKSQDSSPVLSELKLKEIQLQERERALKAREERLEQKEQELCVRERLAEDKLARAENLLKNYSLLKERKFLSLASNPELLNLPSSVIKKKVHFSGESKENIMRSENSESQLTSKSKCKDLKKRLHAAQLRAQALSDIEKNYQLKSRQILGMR

[25] = target: Serine/threonine-protein kinase Nek4 (Homo sapiens) (UniProt P51957); conditions: Compound concentration 1000.0 nM
[26] = target: Serine/threonine-protein kinase pim-3 (Homo sapiens) (UniProt Q86V86); conditions: Compound concentration 1000.0 nM
[27] = target: Serine/threonine-protein kinase PknB (Mycobacterium tuberculosis) (UniProt P9WI81); conditions: Compound concentration 1000.0 nM
[28] = target: Protein kinase C delta type (Homo sapiens) (UniProt Q05655); conditions: Compound concentration 1000.0 nM
Sequence of Protein kinase C delta type (Homo sapiens) (Q05655 whole entry, looked up): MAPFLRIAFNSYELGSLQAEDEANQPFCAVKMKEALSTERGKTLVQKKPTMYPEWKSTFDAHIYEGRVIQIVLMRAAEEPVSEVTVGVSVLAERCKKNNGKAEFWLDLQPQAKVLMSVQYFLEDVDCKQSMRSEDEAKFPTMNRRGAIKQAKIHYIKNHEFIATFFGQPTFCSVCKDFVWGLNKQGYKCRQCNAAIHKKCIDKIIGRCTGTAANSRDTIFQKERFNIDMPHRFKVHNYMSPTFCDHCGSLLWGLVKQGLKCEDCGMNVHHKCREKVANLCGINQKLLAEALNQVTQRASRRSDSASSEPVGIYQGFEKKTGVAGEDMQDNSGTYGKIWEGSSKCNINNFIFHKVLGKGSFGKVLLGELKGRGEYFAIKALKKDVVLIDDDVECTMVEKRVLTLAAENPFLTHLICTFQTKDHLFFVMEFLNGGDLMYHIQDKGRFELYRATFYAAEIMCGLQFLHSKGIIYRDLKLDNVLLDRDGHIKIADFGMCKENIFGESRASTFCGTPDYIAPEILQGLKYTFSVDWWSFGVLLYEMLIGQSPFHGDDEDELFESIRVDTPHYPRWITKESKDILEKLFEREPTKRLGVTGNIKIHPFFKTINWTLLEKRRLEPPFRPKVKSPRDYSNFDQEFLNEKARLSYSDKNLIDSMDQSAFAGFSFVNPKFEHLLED

[29] = system: Proto-oncogene tyrosine-protein kinase receptor Ret (Homo sapiens), P07949 [M918T]; conditions: Compound concentration 1000.0 nM
[30] = target: Ribosomal protein S6 kinase alpha-6 (Homo sapiens) (UniProt Q9UK32); conditions: Compound concentration 1000.0 nM
Sequence of Ribosomal protein S6 kinase alpha-6 (Homo sapiens) (Q9UK32 whole entry): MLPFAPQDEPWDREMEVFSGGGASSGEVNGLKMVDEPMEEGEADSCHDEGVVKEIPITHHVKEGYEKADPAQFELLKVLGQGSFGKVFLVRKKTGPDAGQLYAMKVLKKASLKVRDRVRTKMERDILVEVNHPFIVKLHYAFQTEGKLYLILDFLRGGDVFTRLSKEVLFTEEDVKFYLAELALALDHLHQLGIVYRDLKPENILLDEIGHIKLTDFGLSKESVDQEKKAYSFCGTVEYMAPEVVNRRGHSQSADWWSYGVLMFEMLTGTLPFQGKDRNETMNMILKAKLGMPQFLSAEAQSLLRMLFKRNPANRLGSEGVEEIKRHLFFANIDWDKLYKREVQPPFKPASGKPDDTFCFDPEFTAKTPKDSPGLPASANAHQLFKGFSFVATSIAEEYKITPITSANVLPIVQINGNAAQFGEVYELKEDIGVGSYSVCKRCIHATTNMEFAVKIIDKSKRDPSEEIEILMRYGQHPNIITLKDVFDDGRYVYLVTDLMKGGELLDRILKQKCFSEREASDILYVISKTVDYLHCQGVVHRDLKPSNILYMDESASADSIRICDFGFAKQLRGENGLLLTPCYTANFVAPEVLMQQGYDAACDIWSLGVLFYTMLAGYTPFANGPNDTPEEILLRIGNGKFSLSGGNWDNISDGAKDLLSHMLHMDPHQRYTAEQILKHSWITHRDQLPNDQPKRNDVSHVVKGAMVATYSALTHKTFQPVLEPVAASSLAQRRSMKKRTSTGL

[31] = target: Serine/threonine-protein kinase Sgk2 (Homo sapiens) (UniProt Q9HBY8); conditions: Compound concentration 1000.0 nM
[32] = target: Angiopoietin-1 receptor (Homo sapiens) (UniProt Q02763); conditions: Compound concentration 1000.0 nM
[33] = target: Serine/threonine-protein kinase tousled-like 1 (Homo sapiens) (UniProt Q9UKI8); conditions: Compound concentration 1000.0 nM
[34] = target: Serine/threonine-protein kinase TNNI3K (Homo sapiens) (UniProt Q59H18); conditions: Compound concentration 1000.0 nM
[35] = target: BDNF/NT-3 growth factors receptor (Homo sapiens) (UniProt Q16620); conditions: Compound concentration 1000.0 nM
[36] = target: Testis-specific serine/threonine-protein kinase 1 (Homo sapiens) (UniProt Q9BXA7); conditions: Compound concentration 1000.0 nM
[37] = target: Testis-specific serine/threonine-protein kinase 3 (Homo sapiens) (UniProt Q96PN8); conditions: Compound concentration 1000.0 nM
[38] = target: Mitogen-activated protein kinase kinase kinase 19 (Homo sapiens) (UniProt Q56UN5); conditions: Compound concentration 1000.0 nM
[39] = target: 5-hydroxytryptamine receptor 1A (Homo sapiens) (UniProt P08908); conditions: Compound concentration 10.0 uM
[40] = target: 5-hydroxytryptamine receptor 1E (Homo sapiens) (UniProt P28566); conditions: Compound concentration 10.0 uM
Sequence of 5-hydroxytryptamine receptor 1E (Homo sapiens) (P28566 whole entry): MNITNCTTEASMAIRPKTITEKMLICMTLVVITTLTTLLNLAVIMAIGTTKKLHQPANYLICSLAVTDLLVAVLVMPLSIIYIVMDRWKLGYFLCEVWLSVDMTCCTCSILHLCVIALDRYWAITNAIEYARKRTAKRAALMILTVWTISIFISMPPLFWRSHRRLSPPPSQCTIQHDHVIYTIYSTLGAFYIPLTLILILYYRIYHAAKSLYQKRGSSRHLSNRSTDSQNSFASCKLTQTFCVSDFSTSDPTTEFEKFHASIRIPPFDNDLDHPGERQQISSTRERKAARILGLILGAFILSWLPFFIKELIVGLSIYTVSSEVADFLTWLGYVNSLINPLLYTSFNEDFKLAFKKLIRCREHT

[41] = target: Sodium-dependent serotonin transporter (Homo sapiens) (UniProt P31645); conditions: Compound concentration 10.0 uM
Sequence of Sodium-dependent serotonin transporter (Homo sapiens) (P31645 whole entry, looked up): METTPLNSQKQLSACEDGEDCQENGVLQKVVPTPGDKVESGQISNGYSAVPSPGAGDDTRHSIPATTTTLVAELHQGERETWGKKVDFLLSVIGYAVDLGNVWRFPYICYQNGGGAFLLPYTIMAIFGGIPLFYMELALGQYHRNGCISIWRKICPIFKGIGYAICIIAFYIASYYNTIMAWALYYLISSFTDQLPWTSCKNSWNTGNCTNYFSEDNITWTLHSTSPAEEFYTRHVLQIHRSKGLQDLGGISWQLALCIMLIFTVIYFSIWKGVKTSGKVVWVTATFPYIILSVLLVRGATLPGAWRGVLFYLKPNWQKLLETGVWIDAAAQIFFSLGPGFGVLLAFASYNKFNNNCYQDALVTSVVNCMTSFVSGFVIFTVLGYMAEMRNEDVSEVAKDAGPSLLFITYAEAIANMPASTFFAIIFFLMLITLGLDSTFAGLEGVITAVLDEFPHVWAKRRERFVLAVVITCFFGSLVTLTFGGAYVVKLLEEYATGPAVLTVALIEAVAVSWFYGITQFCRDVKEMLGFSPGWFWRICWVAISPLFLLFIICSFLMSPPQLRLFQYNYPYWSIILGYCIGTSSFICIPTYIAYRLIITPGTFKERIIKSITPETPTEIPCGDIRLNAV

[42] = target: GABA-A receptor; anion channel (Rattus norvegicus) (UniProt O09028+P15431+P18506+P18508+P19969+P20236+P23574+P23576+P28471+P28473+P30191+P62813+P63079+P63138+Q91ZM7+Q9ES14); conditions: Compound concentration 10.0 uM
[43] = target: Muscarinic acetylcholine receptor M5 (Homo sapiens) (UniProt P08912); conditions: Compound concentration 10.0 uM
[44] = target: Sigma non-opioid intracellular receptor 1 (Homo sapiens) (UniProt Q99720); conditions: Compound concentration 10.0 uM

Cc1nc(N2CC[C@@H](O)C2)ncc1-c1cc(C(F)(F)F)cc2[nH]ncc12 [TP-004]
inactive: residual activity [1] 100% | residual activity [2] 73% | residual activity [3] 70% | residual activity [4] 60% | residual activity [5] 80% | residual activity [6] 100% | residual activity [7] 68% | residual activity [8] 77% | residual activity [9] 100% | residual activity [10] 99% | residual activity [11] 61% | residual activity [12] 100% | residual activity [13] 69% | residual activity [14] 88% | residual activity [15] 100% | residual activity [16] 100% | residual activity [17] 72% | residual activity [18] 67% | residual activity [19] 69% | residual activity [20] 68% | residual activity [21] 100% | residual activity [22] 100% | residual activity [23] 95% | residual activity [24] 92% | residual activity [25] 81% | residual activity [26] 100% | residual activity [27] 89% | residual activity [28] 94% | residual activity [29] 100% | residual activity [30] 100% | residual activity [31] 88% | residual activity [32] 100% | residual activity [33] 100% | residual activity [34] 87% | residual activity [35] 53% | residual activity [36] 98% | residual activity [37] 100% | residual activity [38] 67% | inhibition [39] 20% | inhibition [40] -5.65% | inhibition [41] -6.93% | inhibition [42] 16.2% | inhibition [43] 0.643% | inhibition [44] 45.5%
